From ChEMBL document CHEMBL5380817, “Discovery of LL-K8-22: A Selective, Durable, and Small-Molecule Degrader of the CDK8-Cyclin C Complex” (J Med Chem, 2023)
The source made the active and inactive calls.

How the values were obtained:
[1] = biological target: T1, CDK8/Cyclin C (Homo sapiens) (UniProt P49336+P24863); assay: Hydrophobic-tagging degradation activity at CDK8/Cyclin C in human MDA-MB-468 cells assessed as protein degradation at 1.1 to 10 uM incubated for 48 hrs by Western blotting analysis; type: cell-based; details: dose 1.1-10 µM
[2] = biological target: T2, Cyclin-dependent kinase 8 (Homo sapiens, UniProt P49336); assay: Hydrophobic-tagging degradation activity at CDK8 in human MDA-MB-468 cells assessed as degradation of CDK8 incubated for 48 hrs by Western blotting analysis; type: cell-based
Cyclin-C = Cyclin-C (Homo sapiens, UniProt P24863); assay: PROTAC activity at Cyclin C in human MDA-MB-468 cells assessed as degradation of Cyclin C incubated for 48 hrs by Western blotting analysis; type: cell-based
[3] = biological target: T1, CDK8/Cyclin C (Homo sapiens); assay: Hydrophobic-tagging degradation activity at CDK8/Cyclin C in human MDA-MB-231 cells assessed as protein degradation at 1.5 to 30 uM incubated for 48 hrs by Western blotting analysis; type: cell-based; details: dose 1.5-30 µM
[4] = biological target: Cyclin-dependent kinase 2 (Homo sapiens) (UniProt P24941); assay: PROTAC activity at CDK2 in human MDA-MB-468 cells assessed as degradation of CDK2 at 0.625 to 10 uM incubated for 24 hrs by Western blotting analysis; type: cell-based; details: dose 0.625-10 µM
[5] = biological target: Cyclin-dependent kinase 4 (Homo sapiens) (UniProt P11802); assay: Hydrophobic-tagging degradation activity at CDK4 in human MDA-MB-468 cells assessed as degradation of CDK4 at 0.625 to 10 uM incubated for 24 hrs by Western blotting analysis; type: cell-based; details: dose 0.625-10 µM
[6] = biological target: Cyclin-dependent kinase 5 (Homo sapiens) (UniProt Q00535); assay: PROTAC activity at CDK5 in human MDA-MB-468 cells assessed as degradation of CDK5 at 0.625 to 10 uM incubated for 24 hrs by Western blotting analysis; type: cell-based; details: dose 0.625-10 µM
[7] = biological target: Cyclin-dependent kinase 7 (Homo sapiens) (UniProt P50613); assay: Hydrophobic-tagging degradation activity at CDK7 in human MDA-MB-468 cells assessed as degradation of CDK7 at 0.625 to 10 uM incubated for 24 hrs by Western blotting analysis; type: cell-based; details: dose 0.625-10 µM
[8] = biological target: Cyclin-dependent kinase 12 (Homo sapiens) (UniProt Q9NYV4); assay: PROTAC activity at CDK12 in human MDA-MB-468 cells assessed as degradation of CDK12 at 0.625 to 10 uM incubated for 24 hrs by Western blotting analysis; type: cell-based; details: dose 0.625-10 µM
[9] = biological target: Cyclin-dependent kinase 1 (Homo sapiens) (UniProt P06493); assay: Hydrophobic-tagging degradation activity at CDK1 in human MDA-MB-468 cells assessed as degradation of CDK1 at 10 uM incubated for 24 hrs by Western blotting analysis; type: cell-based
[10] = biological target: G2/mitotic-specific cyclin-B1 (Homo sapiens) (UniProt P14635); assay: PROTAC activity at Cyclin B1 in human MDA-MB-468 cells assessed as degradation of Cyclin B1 at 0.625 to 10 uM incubated for 24 hrs by Western blotting analysis; type: cell-based; details: dose 0.625-10 µM
Cyclin-H (Homo sapiens) = Cyclin-H (Homo sapiens) (UniProt P51946); assay: PROTAC activity at Cyclin H in human MDA-MB-468 cells assessed as degradation of Cyclin H at 0.625 to 10 uM incubated for 24 hrs by Western blotting analysis; type: cell-based; details: dose 0.625-10 µM
Cyclin-K (Homo sapiens) = Cyclin-K (Homo sapiens) (UniProt O75909); assay: PROTAC activity at Cyclin K in human MDA-MB-468 cells assessed as degradation of Cyclin K at 0.625 to 10 uM incubated for 24 hrs by Western blotting analysis; type: cell-based; details: dose 0.625-10 µM
Cyclin-T1 (Homo sapiens) = Cyclin-T1 (Homo sapiens) (UniProt O60563); assay: PROTAC activity at Cyclin T1 in human MDA-MB-468 cells assessed as degradation of Cyclin T1 at 0.625 to 10 uM incubated for 24 hrs by Western blotting analysis; type: cell-based; details: dose 0.625-10 µM
[11] = biological target: T2, Cyclin-dependent kinase 8; assay: Hydrophobic-tagging degradation activity at CDK8 in human MDA-MB-468 cells assessed as degradation of CDK8 protein at 5 uM incubated for 12 hrs by DIA-based proteomic analysis; type: cell-based
[12] = biological target: Cyclin-dependent kinase 19 (Homo sapiens) (UniProt Q9BWU1); assay: Hydrophobic-tagging degradation activity at CDK19 in human MDA-MB-468 cells assessed as degradation of CDK19 protein at 5 uM incubated for 12 hrs by DIA-based proteomic analysis; type: cell-based
MDA-MB-468 [13] = assay: Antiproliferative activity against human MDA-MB-468 cells assessed as reduction in cell viability incubated for 4 days by Celltiter glo luminescent assay; type: functional, cell-based; details: time 4.0 day
MDA-MB-231 = assay: Antiproliferative activity against human MDA-MB-231 cells assessed as reduction in cell viability incubated for 4 days by Celltiter glo luminescent assay; type: functional, cell-based; details: time 4.0 day
MDA-MB-468 [14] = assay: Antiproliferative activity against human MDA-MB-468 cells assessed as reduction in cell growth at 5 to 20 uM measured upto 5 days by Celltiter glo luminescent assay; type: functional, cell-based; details: dose 5-20 µM, time <= 5.0 day
MDA-MB-468 [15] = assay: Inhibition of colony formation in human MDA-MB-468 cells assessed as reduction in cell colony size at 1.25 to 20 uM incubated for 3 days by crystal violet staining based assay; type: functional; details: dose 1.25-20 µM, time 3.0 day
[16] = biological target: T1, CDK8/Cyclin C (Homo sapiens); assay: Hydrophobic-tagging degradation activity at CDK8/Cyclin C in human MDA-MB-468 cells assessed as downregulation of C-terminal RNA polymerase II phosphorylation at serine 2 at 2 to 8 uM incubated for 24 hrs by Western blotting analysis; type: cell-based; details: dose 2-8 µM
[17] = biological target: T1, CDK8/Cyclin C (Homo sapiens); assay: Hydrophobic-tagging degradation activity at CDK8/Cyclin C in human MDA-MB-468 cells assessed as downregulation of Rb phosphorylation at 2 to 8 uM incubated for 24 hrs by Western blotting analysis; type: cell-based; details: dose 2-8 µM
[18] = biological target: T1, CDK8/Cyclin C (Homo sapiens); assay: Hydrophobic-tagging degradation activity at CDK8/Cyclin C in human MDA-MB-468 cells assessed as downregulation of STAT1 phosphorylation at Ser727 residue at 2 to 8 uM incubated for 24 hrs by Western blotting analysis; type: cell-based; details: dose 2-8 µM
[19] = biological target: T1, CDK8/Cyclin C (Homo sapiens); assay: Hydrophobic-tagging degradation activity at CDK8/Cyclin C in human MDA-MB-468 cells assessed as downregulation of STAT1 phosphorylation at Ser727 residue at 4 uM incubated for 24 hrs followed by compound washout and measured after 24 hrs by Western blotting analysis; type: cell-based
[20] = biological target: T1, CDK8/Cyclin C (Homo sapiens); assay: Hydrophobic-tagging degradation activity at CDK8/Cyclin C in human MDA-MB-468 cells assessed as effect on mRNA expression level at 4 uM incubated for 24 hrs by […] analysis; type: cell-based
[21] = biological target: T1, CDK8/Cyclin C (Homo sapiens); assay: Hydrophobic-tagging degradation activity at CDK8/Cyclin C in human MDA-MB-468 cells assessed as downregulation of E2F gene expression level at 4 uM incubated for 24 hrs by qPT-PCR analysis; type: cell-based
[22] = biological target: T2, Cyclin-dependent kinase 8; assay: Hydrophobic-tagging degradation activity at CDK8 in human MDA-MB-468 cells assessed as downregulation of SMAD2 protein expression at 5 uM incubated for 12 hrs by DIA-based proteomic analysis; type: cell-based
MDA-MB-468 [23] = assay: Antiproliferative activity against human MDA-MB-468 cells assessed as inhibition of cell proliferation incubated for 4 days by Celltiter glo luminescent assay; type: functional, cell-based; details: MDA-MB-468, 96 h

T2 sequence (P49336 whole entry): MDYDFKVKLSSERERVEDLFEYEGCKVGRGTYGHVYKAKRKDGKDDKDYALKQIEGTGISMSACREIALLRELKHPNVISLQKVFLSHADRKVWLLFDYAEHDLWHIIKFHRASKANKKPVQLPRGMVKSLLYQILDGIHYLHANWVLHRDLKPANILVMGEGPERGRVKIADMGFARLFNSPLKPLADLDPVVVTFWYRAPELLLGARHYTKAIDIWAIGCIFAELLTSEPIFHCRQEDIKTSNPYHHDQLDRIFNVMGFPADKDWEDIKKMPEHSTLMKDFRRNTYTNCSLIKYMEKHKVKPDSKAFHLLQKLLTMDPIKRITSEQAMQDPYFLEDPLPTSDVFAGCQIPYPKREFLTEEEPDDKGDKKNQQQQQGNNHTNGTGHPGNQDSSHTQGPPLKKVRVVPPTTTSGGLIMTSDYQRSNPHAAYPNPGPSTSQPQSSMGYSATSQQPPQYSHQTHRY
Sequence of Cyclin-T1 (Homo sapiens) (O60563 whole entry): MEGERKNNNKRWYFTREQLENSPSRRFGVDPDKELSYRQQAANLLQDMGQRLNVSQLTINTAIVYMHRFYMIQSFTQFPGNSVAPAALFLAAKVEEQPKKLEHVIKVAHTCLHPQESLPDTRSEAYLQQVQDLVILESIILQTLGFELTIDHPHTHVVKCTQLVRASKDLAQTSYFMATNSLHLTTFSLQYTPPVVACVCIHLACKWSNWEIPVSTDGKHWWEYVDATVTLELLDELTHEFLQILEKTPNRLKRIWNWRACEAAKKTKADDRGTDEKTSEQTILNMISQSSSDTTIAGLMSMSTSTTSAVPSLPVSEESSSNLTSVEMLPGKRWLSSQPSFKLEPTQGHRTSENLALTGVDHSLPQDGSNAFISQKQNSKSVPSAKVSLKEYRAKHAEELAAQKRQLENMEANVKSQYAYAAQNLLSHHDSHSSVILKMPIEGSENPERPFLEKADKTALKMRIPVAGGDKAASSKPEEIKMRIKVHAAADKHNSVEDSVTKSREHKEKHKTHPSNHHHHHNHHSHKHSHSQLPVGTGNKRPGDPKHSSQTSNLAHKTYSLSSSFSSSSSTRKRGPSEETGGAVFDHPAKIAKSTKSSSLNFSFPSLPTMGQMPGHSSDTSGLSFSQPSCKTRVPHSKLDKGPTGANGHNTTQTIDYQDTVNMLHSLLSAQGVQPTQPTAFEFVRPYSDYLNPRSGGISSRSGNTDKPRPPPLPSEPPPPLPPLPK
Sequence of Cyclin-dependent kinase 1 (Homo sapiens) (P06493 whole entry, looked up): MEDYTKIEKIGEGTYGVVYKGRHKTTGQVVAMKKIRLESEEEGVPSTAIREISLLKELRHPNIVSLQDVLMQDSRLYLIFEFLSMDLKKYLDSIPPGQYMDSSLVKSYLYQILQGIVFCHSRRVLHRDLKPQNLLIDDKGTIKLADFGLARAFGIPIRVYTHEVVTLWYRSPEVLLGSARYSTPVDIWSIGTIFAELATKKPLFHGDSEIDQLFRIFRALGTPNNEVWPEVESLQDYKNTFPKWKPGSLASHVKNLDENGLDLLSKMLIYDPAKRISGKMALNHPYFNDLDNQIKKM
Sequence of Cyclin-K (Homo sapiens) (O75909 whole entry): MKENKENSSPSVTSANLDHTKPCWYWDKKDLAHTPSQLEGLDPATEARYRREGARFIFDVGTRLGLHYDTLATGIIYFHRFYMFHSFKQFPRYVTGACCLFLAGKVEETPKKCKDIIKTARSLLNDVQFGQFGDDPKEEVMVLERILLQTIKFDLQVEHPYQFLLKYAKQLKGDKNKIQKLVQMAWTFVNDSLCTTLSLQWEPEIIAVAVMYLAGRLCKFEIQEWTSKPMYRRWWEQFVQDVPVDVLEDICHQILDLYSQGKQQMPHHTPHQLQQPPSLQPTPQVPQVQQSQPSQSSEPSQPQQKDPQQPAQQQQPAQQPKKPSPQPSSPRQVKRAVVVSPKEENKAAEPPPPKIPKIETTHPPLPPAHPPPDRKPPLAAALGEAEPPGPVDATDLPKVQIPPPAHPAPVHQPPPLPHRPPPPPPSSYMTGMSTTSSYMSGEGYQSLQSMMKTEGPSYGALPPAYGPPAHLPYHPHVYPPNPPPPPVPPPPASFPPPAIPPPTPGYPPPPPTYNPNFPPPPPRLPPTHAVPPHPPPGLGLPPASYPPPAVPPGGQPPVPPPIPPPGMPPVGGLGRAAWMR
Sequence of Cyclin-H (Homo sapiens) (P51946 whole entry): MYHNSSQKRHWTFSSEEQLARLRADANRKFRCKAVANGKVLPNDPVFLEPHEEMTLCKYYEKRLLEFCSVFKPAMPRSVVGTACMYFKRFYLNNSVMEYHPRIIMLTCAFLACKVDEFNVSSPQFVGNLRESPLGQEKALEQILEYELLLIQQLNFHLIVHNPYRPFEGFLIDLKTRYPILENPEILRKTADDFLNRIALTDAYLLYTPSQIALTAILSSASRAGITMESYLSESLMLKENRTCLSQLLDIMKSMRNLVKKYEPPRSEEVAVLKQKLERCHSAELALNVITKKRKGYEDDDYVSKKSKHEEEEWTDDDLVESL
Sequence of G2/mitotic-specific cyclin-B1 (Homo sapiens) (P14635 whole entry): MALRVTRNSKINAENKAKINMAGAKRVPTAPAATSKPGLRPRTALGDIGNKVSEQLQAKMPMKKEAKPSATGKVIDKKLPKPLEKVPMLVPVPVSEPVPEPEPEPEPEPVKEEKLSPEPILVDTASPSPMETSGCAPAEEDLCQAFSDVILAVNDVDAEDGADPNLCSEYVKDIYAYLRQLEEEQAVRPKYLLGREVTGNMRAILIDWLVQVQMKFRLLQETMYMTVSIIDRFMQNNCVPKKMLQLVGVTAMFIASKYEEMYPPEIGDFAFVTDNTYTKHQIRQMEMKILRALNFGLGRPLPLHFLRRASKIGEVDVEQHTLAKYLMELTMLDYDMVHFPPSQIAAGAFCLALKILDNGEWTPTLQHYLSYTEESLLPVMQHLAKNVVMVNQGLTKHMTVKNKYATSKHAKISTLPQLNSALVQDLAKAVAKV
Sequence of Cyclin-dependent kinase 5 (Homo sapiens) (Q00535 whole entry, looked up): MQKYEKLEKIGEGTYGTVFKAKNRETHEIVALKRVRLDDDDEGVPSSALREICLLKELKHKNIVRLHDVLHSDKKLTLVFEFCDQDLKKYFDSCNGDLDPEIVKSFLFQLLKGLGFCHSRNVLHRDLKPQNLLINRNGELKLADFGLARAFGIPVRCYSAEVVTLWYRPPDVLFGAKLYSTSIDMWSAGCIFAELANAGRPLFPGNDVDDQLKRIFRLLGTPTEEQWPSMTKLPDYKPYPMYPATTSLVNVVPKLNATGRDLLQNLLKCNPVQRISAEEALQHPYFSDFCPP
Sequence of Cyclin-C (P24863 whole entry): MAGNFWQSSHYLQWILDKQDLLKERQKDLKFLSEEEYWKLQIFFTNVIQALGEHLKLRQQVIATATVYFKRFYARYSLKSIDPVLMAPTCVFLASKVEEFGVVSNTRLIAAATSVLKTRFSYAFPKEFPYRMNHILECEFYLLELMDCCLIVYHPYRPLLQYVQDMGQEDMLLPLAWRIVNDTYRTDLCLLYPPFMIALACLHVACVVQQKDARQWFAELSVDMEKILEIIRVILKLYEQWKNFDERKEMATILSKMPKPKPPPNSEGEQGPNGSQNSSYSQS
Sequence of Cyclin-dependent kinase 7 (Homo sapiens) (P50613 whole entry): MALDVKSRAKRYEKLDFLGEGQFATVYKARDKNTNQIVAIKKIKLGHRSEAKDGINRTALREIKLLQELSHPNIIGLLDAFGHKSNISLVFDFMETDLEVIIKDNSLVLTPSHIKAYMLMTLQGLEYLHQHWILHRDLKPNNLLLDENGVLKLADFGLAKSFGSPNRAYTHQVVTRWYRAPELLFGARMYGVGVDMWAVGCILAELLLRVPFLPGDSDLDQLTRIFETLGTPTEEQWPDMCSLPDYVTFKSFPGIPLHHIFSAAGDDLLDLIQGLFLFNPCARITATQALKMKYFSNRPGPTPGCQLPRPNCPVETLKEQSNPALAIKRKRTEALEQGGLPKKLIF
Sequence of Cyclin-dependent kinase 19 (Homo sapiens) (Q9BWU1 whole entry): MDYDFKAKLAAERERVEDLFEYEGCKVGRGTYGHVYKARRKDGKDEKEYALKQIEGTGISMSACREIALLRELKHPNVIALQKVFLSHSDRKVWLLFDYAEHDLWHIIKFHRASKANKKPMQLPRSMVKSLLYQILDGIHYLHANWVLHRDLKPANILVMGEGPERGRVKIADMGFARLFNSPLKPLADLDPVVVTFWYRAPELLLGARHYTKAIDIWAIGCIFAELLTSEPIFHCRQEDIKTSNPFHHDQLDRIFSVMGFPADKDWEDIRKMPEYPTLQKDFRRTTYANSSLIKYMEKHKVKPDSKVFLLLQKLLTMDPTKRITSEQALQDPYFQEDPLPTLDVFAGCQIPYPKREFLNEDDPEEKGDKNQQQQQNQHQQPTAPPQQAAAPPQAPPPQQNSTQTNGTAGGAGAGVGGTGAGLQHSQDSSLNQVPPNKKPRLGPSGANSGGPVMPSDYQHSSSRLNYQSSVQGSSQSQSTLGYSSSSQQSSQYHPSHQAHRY
Sequence of Cyclin-dependent kinase 4 (Homo sapiens) (P11802 whole entry): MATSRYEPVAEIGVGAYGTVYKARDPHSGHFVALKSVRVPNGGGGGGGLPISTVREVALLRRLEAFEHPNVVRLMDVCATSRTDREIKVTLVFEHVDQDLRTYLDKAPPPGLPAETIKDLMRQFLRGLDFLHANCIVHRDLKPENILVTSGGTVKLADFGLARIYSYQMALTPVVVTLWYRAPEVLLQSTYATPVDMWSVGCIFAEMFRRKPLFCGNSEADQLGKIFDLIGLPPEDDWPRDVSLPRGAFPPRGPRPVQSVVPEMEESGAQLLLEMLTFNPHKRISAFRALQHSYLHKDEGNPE

O=C(Cn1cc(-c2ccc(-c3cncc4ccccc34)cc2)cn1)N1CCN(CCCC23CC4CC(CC(C4)C2)C3)CC1
inactive: Activity [4] | Activity [5] | Activity [6] | Activity [7] | Activity [8] | Activity [10] | Activity (Cyclin-H (Homo sapiens)) | Activity (Cyclin-K (Homo sapiens)) | Activity (Cyclin-T1 (Homo sapiens)) | Activity [12] | Activity [20]
2640 nM: DC50 (Cyclin-C)
70%: inhibition [19]
5730 nM: IC50 (MDA-MB-468 [23])
2520 nM: DC50 [2]
active: Activity [1] | Activity [3] | Activity [9] | Activity [11] | Activity (MDA-MB-468 [13]) | Activity (MDA-MB-231) | Activity (MDA-MB-468 [14]) | inhibition (MDA-MB-468 [15]) | Activity [16] Dose-Dependent Effect | Activity [17] | Activity [18] | Activity [21] | Activity [22]
